IC50 data for 14 molecules are collected here from US10821115B2, “Compounds that inhibit Mcl-1 protein” (priority 2017, dated 2020).

Structures are written as SMILES. Read-outs that look alike come from different tables or passages of the source.

Assay [1] relates to human multiple myeloma cell line, OPM-2. The experiment in a line: Cell viability assay (OPM-2 10 FBS), CellTiter-Glo. The class given is cell-based. In a few lines:
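Serially diluted test compounds are incubated 16 h with cells (3000/well) in RPMI 1640 supplemented with 10% FBS. Viability is then measured by luminescence and IC50 calculated by 4-parameter logistic fit.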
On the technique in general: In ATP-based viability assays light output follows the ATP content of the culture.

In assay [2] the target is recombinant human Mcl-1 (residues 171-327) / Bim interaction (Homo sapiens (Human), UniProt Q07820). The experiment in a line: biochemical. The class given is binding. Conditions: read-out: Mcl-1 HTRF IC50.
The mark [3] stands for this setting: Homo sapiens, OPM-2, 16 h, read-out: OPM-2 10% FBS IC50 IP, OPM-2 cells, 10% FBS, 16 h, CellTiter-Glo.
Where [4] appears, read: TR-FRET, Mcl-1(171-327) / biotin-Bim (51-76).
Where [5] appears, read: Homo sapiens, OPM-2, 16 h, read-out: OPM-2 10% FBS IC50 IP, OPM-2 cells, 10% FBS, 16 h incubation.
Where [6] appears, read: 0.1 nM Mcl-1(171-327), 0.05 nM biotin-Bim (51-76).

Sequence of recombinant human Mcl-1 (residues 171-327) / Bim interaction (Q07820 171-327): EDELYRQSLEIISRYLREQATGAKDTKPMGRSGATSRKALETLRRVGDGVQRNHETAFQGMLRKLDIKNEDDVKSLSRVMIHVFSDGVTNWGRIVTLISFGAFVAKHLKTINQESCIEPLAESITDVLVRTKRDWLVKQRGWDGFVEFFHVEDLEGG

In the case of `CO[C@@]1(CC(=O)N(C)C)CCC[C@H](C)[C@@H](C)S(=O)(=O)NC(=O)c2ccc3c(c2)N(C[C@@H]2CC[C@H]21)C[C@@]1(CCCc2cc(Cl)ccc21)CO3` [Example 100176, 2-((1S,3′R,6′R,7′R,11′S,12′R)-6-chloro-7′-methoxy-11′,12′-dimethyl-13′,13′-dioxido-15′-oxo-3,4-dihydro-2H-spiro[naphthalene-1,22′-[20]oxa[13]thia[1,14]diazatetracyclo [14.7.2.0~3,6~.0~19,24~]pentacosa[16,18,24]trien]-7′-yl)-N,N-dimethylacetamide], the IC50 (commonly the concentration that gives 50% inhibition) in assay [1] (setting [3]) is 603 nM; in assay [2] (setting [4]), 0.48 nM.
Consider `COCCN1CCN(C[C@@]2(OC)/C=C/C[C@H](C)[C@@H](C)S(=O)(=O)NC(=O)c3ccc4c(c3)N(C[C@@H]3CC[C@H]32)C[C@@]2(CCCc3cc(Cl)ccc32)CO4)CC1` [Example 61, (1S,3′R,6′R,7′R,8′E,11′S,12′R)-6-chloro-7′-methoxy-7′-((4-(2-methoxyethyl)-1-piperazinyl)methyl)-11′,12′-dimethyl-3,4-dihydro-2H,15′H-spiro[naphthalene-1,22′-[20]oxa[13]thia[1,14]diazatetracyclo [14.7.2.0~3,6~.0~19,24~]pentacosa[8,16,18,24]tetraen]-15′-one 13′,13′-dioxide], for which the IC50 in assay [1] (setting [5]) was 124 nM; in assay [2] (setting [6]) it was 0.075 nM.
With `COCC[C@@H]1[C@@H](C)C/C=C/[C@](CN2CCN(C(C)(C)COC)CC2)(OC)[C@@H]2CC[C@H]2CN2C[C@@]3(CCCc4cc(Cl)ccc43)COc3ccc(nc32)C(=O)NS1(=O)=O` [Example 27, (1S,3′R,6′R,7′S,8′E,11′S,12′R)-6-chloro-7′-methoxy-7′-((4-(2-methoxy-1,1-dimethylethyl)-1-piperazinyl)methyl)-12′-(2-methoxyethyl)-11′-methyl-3,4-dihydro-2H,15′H-spiro[naphthalene-1,22′-[20]oxa[13]thia[1,14,25]triazatetracyclo [14.7.2.0~3,6~.0~19,24~]pentacosa[8,16,18,24]tetraen]-15′-one 13′,13′-dioxide], the IC50 turned out to be 29 nM in assay [1] (setting [5]) and 0.095 nM in assay [2] (setting [6]).
Turning to `COCC[C@@H]1[C@@H](C)C/C=C/[C@](CN2CCN3CCOC[C@@H]3C2)(OC)[C@@H]2CC[C@H]2CN2C[C@@]3(CCCc4cc(Cl)ccc43)COc3ccc(cc32)C(=O)NS1(=O)=O` [Example 179, (1S,3′R,6′R,7′S,8′E,11′S,12′R)-6-chloro-7′-((9aS)-hexahydropyrazino[2,1-c][1,4]oxazin-8(1H)-ylmethyl)-7′-methoxy-12′-(2-methoxyethyl)-11′-methyl-3,4-dihydro-2H,15′H-spiro[naphthalene-1,22′-[20]oxa[13]thia[1,14]diazatetracyclo [14.7.2.0~3,6~.0~19,24~]pentacosa[8,16,18,24]tetraen]-15′-one 13′,13′-dioxide], the IC50 is 36 nM in assay [1] (setting [5]) and 0.072 nM in assay [2] (setting [6]).
For the molecule `CO[C@@]1(CN2CCN3CCOC[C@@H]3C2)/C=C/C[C@H](C)[C@@H](CC2CCC2)S(=O)(=O)NC(=O)c2ccc3c(c2)N(C[C@@H]2CC[C@H]21)C[C@@]1(CCCc2cc(Cl)ccc21)CO3` [Example 39, (1S,3′R,6′R,7′S,8′E,11′S,12′R)-6-chloro-12′-(cyclobutylmethyl)-7′-((9aS)-hexahydropyrazino[2,1-c][1,4]oxazin-8(1H)-ylmethyl)-7′-methoxy-11′-methyl-3,4-dihydro-2H,15′H-spiro[naphthalene-1,22′-[20]oxa[13]thia[1,14]diazatetracyclo [14.7.2.0~3,6~.0~19,24~]pentacosa[8,16,18,24]tetraen]-15′-one 13′,13′-dioxide], the IC50 turned out to be 389 nM in assay [1] (setting [5]) and 0.377 nM in assay [2] (setting [6]).
With `CO[C@]1(CN2C[C@H]3C[C@@H]2CN3C(C)C)/C=C/C[C@H](C)[C@@H](C)S(=O)(=O)NC(=O)c2ccc3c(c2)N(C[C@@H]2CC[C@H]21)C[C@@]1(CCCc2cc(Cl)ccc21)CO3` [Example 314, (1S,3′R,6′R,7′R,8′E,11′S,12′R)-6-chloro-7′-methoxy-11′,12′-dimethyl-7′-(((1R,4R)-5-(1-methylethyl)-2,5-diazabicyclo[2.2.1]hept-2-yl)methyl)-3,4-dihydro-2H,15′H-spiro[naphthalene-1,22′-[20]oxa[13]thia[1,14]diazatetracyclo [14.7.2.0~3,6~.0~19,24~]pentacosa[8,16,18,24]tetraen]-15′-one 13′,13′-dioxide], the concentration for half-maximal inhibition (IC50) in assay [1] (setting [5]) came to 126 nM; in assay [2] (setting [6]), 0.118 nM.
Take `CO[C@@]1(CCO)/C=C/C[C@H](C)[C@@H](C)S(=O)(=O)N(C)C(=O)c2ccc3c(c2)N(C[C@@H]2CC[C@H]21)C[C@@]1(CCCc2cc(Cl)ccc21)CO3` [Example 100219, (1S,3′R,6′R,7′S,8′E,11′S,12′R)-6-chloro-7′-(2-hydroxyethyl)-7′-methoxy-11′,12′,14′-trimethyl-3,4-dihydro-2H,15′H-spiro[naphthalene-1,22′-[20]oxa[13]thia[1,14]diazatetracyclo [14.7.2.0~3,6~.0~19,24~]pentacosa[8,16,18,24]tetraen]-15′-one 13′,13′-dioxide]: the IC50 in assay [1] (setting [3]) amounted to 974 nM; in assay [2] (setting [4]) it was 0.401 nM.
Turning to `CCO[C@@]1(CN2CCN3CCOC[C@@H]3C2)/C=C/C[C@H](C)[C@@H](C)S(=O)(=O)NC(=O)c2ccc3c(c2)N(C[C@@H]2CC[C@H]21)C[C@@]1(CCCc2cc(Cl)ccc21)CO3` [Example 101, (1S,3′R,6′R,7′S,8′E,11′S,12′R)-6-chloro-7′-ethoxy-7′-((9aS)-hexahydropyrazino[2,1-c][1,4]oxazin-8(1H)-ylmethyl)-11′,12′-dimethyl-3,4-dihydro-2H,15′H-spiro[naphthalene-1,22′-[20]oxa[13]thia[1,14]diazatetracyclo [14.7.2.0~3,6~.0~19,24~]pentacosa[8,16,18,24]tetraen]-15′-one 13′,13′-dioxide], the IC50 came to 263 nM in assay [1] (setting [5]) and 0.196 nM in assay [2] (setting [6]).
On to `C=CCOC[C@]1(O)/C=C/C[C@H](C)[C@@H](C)S(=O)(=O)NC(=O)c2ccc3c(c2)N(C[C@@H]2CC[C@H]21)C[C@@]1(CCCc2cc(Cl)ccc21)CO3` (single isomer, unassigned) [Example 100496], for which the figures for the half-maximal inhibitory concentration (IC50) in assay [1] (setting [3]) and in assay [2] (setting [4]) were 5060 nM and 2.67 nM, respectively.
Regarding `COCC[C@]1(OC)/C=C/C[C@H](C)[C@@H](C)S(=O)(=O)NC(=O)c2ccc3c(c2)N(C[C@@H]2CC[C@H]21)C[C@@]1(CCCc2cc(Cl)ccc21)CO3` [Example 100369, (1S,3′R,6′R,7′S,8′E,11′S,12′R)-6-chloro-7′-methoxy-7′-(2-methoxyethyl)-11′,12′-dimethyl-3,4-dihydro-2H,15′H-spiro[naphthalene-1,22′-[20]oxa[13]thia[1,14]diazatetracyclo [14.7.2.0~3,6~.0~19,24~]pentacosa[8,16,18,24]tetraen]-15′-one 13′,13′-dioxide], the IC50 in assay [1] (setting [3]) was 9920 nM; in assay [2] (setting [4]) it was 2.83 nM.
Turning to `C[C@@H]1[C@@H](C)C/C=C/[C@](O)(c2cccnn2)[C@@H]2CC[C@H]2CN2C[C@@]3(CCCc4cc(Cl)ccc43)COc3ccc(cc32)C(=O)NS1(=O)=O` [Example 100349, (1S,3′R,6′R,7′R,8′E,11′S,12′R)-6-chloro-7′-hydroxy-11′,12′-dimethyl-7′-(3-pyridazinyl)-3,4-dihydro-2H,15′H-spiro[naphthalene-1,22′-[20]oxa[13]thia[1,14]diazatetracyclo [14.7.2.0~3,6~.0~19,24~]pentacosa[8,16,18,24]tetraen]-15′-one 13′,13′-dioxide], the IC50 in assay [1] (setting [3]) was found to be 58 nM; in assay [2] (setting [4]), 1.15 nM.
For the molecule `CO[C@]1(C=O)/C=C/C[C@H](C)[C@@H](Cc2ccccc2)S(=O)(=O)NC(=O)c2ccc3c(c2)N(C[C@@H]2CC[C@H]21)C[C@@]1(CCCc2cc(Cl)ccc21)CO3` (single isomer, unassigned) [Example 100575], the values for the IC50 in assay [1] (setting [3]) and in assay [2] (setting [4]) were 2500 nM and 1.3 nM, respectively.
The matching figures for `CO[C@]1(CC(=O)N2CC[C@@H](N(C)C)C2)/C=C/C[C@H](C)[C@@H](C)S(=O)(=O)NC(=O)c2ccc3c(c2)N(C[C@@H]2CC[C@H]21)C[C@@]1(CCCc2cc(Cl)ccc21)CO3` [Example 100317, (1S,3′R,6′R,7′R,8′E,11′S,12′R)-6-chloro-7′-(2-((3R)-3-(dimethylamino)-1-pyrrolidinyl)-2-oxoethyl)-7′-methoxy-11′,12′-dimethyl-3,4-dihydro-2H,15′H-spiro[naphthalene-1,22′-[20]oxa[13]thia[1,14]diazatetracyclo [14.7.2.0~3,6~.0~19,24~]pentacosa[8,16,18,24]tetraen]-15′-one 13′,13′-dioxide]: 157 nM and 0.188 nM.
Take `C[C@@H]1[C@@H](C)CCC[C@@](O)([C@@H]2CCN(C)C2=O)[C@@H]2CC[C@H]2CN2C[C@@]3(CCCc4cc(Cl)ccc43)COc3ccc(cc32)C(=O)NS1(=O)=O` [Example 100203, (1S,3′R,6′R,7′S,11′S,12′R)-6-chloro-7′-hydroxy-11′,12′-dimethyl-7′-((3S)-1-methyl-2-oxo-3-pyrrolidinyl)-3,4-dihydro-2H,15′H-spiro[naphthalene-1,22′-[20]oxa[13]thia[1,14]diazatetracyclo [14.7.2.0~3,6~.0~19,24~]pentacosa[16,18,24]trien]-15′-one 13′,13′-dioxide]: the IC50 in assay [1] (read-out: OPM-2 10% FBS IC50 IP, OPM-2 cells, 10% FBS, 16 h, CellTiter-Glo) amounted to 491 nM; in assay [2] (setting [4]) it was 0.285 nM.
